The source of these data is PubChem BioAssay AID540269 (Sanford-Burnham Center for Chemical Genomics, 2011).

Values joined by “and” are separate entries in the source; they are usually repeats but may differ in a detail not shown here. Identical values can stand only once. Active and inactive are the calls of the source. The rule behind the calls is not given here.

This test has as its target glucose-6-phosphate dehydrogenase-6-phosphogluconolactonase (Plasmodium falciparum 3D7). As to the kind of experiment: PfG6PD enzyme inhibitors, kinetic NADPH readout, dose response, orthogonal assay, biochemical, kinetic NADPH detection (AID 540269). To be noted: purified PfG6PD-6PGL.

As for `O=C(Nc1nnc(S(=O)(=O)N2CCCCC2)s1)c1cccc(Br)c1`, the 50% inhibitory concentration (IC50) is 23.8 µM.

Take `COc1ccc(S(=O)(=O)Nc2cc(SCC(=O)O)c(O)c3ccccc23)cc1`: the 50% inhibitory concentration (IC50) is 44.9 µM.

In the case of `COc1cc(C(=O)O/N=C2/C=C(C)C(=O)C=C2C)cc(OC)c1OC`, the IC50 is > 80 µM (inactive).

On to `Cc1ccc(NC(=O)c2ccc(Cl)c(N3C(=O)C=CC3=O)c2)cc1`, for which the IC50 was 28.2 µM.

Regarding `CC(Cc1ccc(O)c(O)c1)C(C)Cc1ccc(O)c(O)c1` (stereo unspecified), the IC50 was 54.9 µM.

With `CCC(C)c1ccccc1OCCn1ccnc1` (stereo unspecified), the IC50 is > 80 µM (inactive).

Regarding `Cc1ccc(NC2=C(NC(=O)c3ccccc3)C(=O)c3ccccc3C2=O)cc1Cl`, the IC50 was > 80 µM (inactive).

Consider `Cn1c2ccccc2c2ccc3c(c21)C(=O)C=CC3=O`, for which the IC50 is 1.8 µM.

For `Cc1cc(C)nc(/N=C(\N)Nc2ccccc2-c2ccccc2)n1`, the IC50 was > 80 µM (inactive).

Consider `Cc1cc(C)c(NC(=S)NCC2CCN(C(C)c3ccccc3)C2)c(C)c1` (stereo unspecified), for which the IC50 is > 80 µM (inactive).

With `CC1=CC(=NOC(=O)/C=C/c2ccccc2)C=C(C)C1=O`, the IC50 was > 80 µM (inactive).

For the compound `CSc1nnc(NC(=O)c2ccc3c(c2)OCO3)s1`, the IC50 was 27.1 µM.

`CCOc1ccc(Cl)cc1/C=N/NC(N)=O`: the IC50 was 48.7 µM.

Take `O=S(=O)(Nc1c(O)ccc2ccccc12)c1ccccc1`: the half-maximal inhibitory concentration (IC50) is 9.3 µM.

For `Nc1ccc(N(CCO)CCO)cc1`, the IC50 is > 80 µM (inactive).

On to `Cc1ccc(S(=O)c2ccc([N+](=O)[O-])c3nonc23)cc1` (stereo unspecified), for which the IC50 was > 80 µM (inactive).

For the compound `C(=N\Nc1nc2ccccc2[nH]1)/c1ccccn1`, the IC50 is > 80 µM (inactive).

Take `c1ccc(-c2nc(N3CCOCC3)s[n+]2-c2ccccc2)cc1`: the IC50 is > 80 µM (inactive).

In the case of `O=C(O)c1cc(N2C(=O)C=CC2=O)cc(N2C(=O)C=CC2=O)c1`, the IC50 is 19.6 µM.

Consider `CC(=O)OCCCNc1cc(Sc2nc3ccccc3s2)c2nonc2c1[N+](=O)[O-]`, for which the IC50 is 14.9 µM.

On to `Cc1ccccc1N/C(SCc1cccc(Br)c1)=C(/C#N)C(N)=O`, for which the IC50 is > 80 µM (inactive).

As for `CC(=O)OCC1(C)CN(c2ccccc2)NC1=O` (stereo unspecified), the IC50 is > 80 µM (inactive).

`Cn1cc(S(=O)(=O)CC(=O)N2CCc3ccccc32)c2ccccc21`: the IC50 is > 80 µM (inactive).

`Cc1c(N=C2C=C(Br)C(=O)C(Br)=C2)c(=O)n(-c2ccccc2)n1C`: the IC50 was > 80 µM (inactive).

Turning to `O=C(NCCCN1CCOCC1)c1sc2cc([N+](=O)[O-])ccc2c1Cl`, the IC50 was 38.5 µM.

With `CC(C)Nc1ccc(Nc2ccccc2)cc1`, the IC50 was > 80 µM (inactive).

Take `O=C(CNC(=O)c1cccs1)NCC(=O)OCC(=O)c1ccc([N+](=O)[O-])cc1`: the IC50 was 62.9 µM.

As to `S=C(NN=Cc1ccccn1)N(Cc1ccccn1)Cc1ccccn1`, the IC50 is 29.5 µM.

Consider `O=c1c2ccccc2sn1-c1cc(S(=O)(=O)N2CCOCC2)ccc1N1CCCC1`, for which the IC50 is 12.5 µM.

Take `CCNc1ccccc1CP(=O)(c1ccccc1)c1ccccc1O` (stereo unspecified): the IC50 was > 80 µM (inactive).

With `Cc1nnc(SCC(=O)c2cc(C)n(-c3ccc4c(c3)OCO4)c2C)s1`, the IC50 was > 80 µM (inactive).

For the compound `O=C1Nc2cc(C(=O)NCCCN3CCCC3)ccc2S/C1=C/c1cccc(Cl)c1`, the IC50 is 34.2 µM.

For `Cc1cccc(OCC(=O)NCC(=O)N/N=C/c2ccccc2)c1`, the IC50 is > 80 µM (inactive).

As to `O=C(Nc1nnc(C2CC2)s1)c1ccc(Cl)nc1`, the 50% inhibitory concentration (IC50) is 70.1 µM.

With `COc1ccc(-n2sc3ccccc3c2=O)cc1`, the IC50 was 14.7 µM.

As to `CN1C(=O)C(N=Nc2ccc([N+](=O)[O-])cc2)SC1=S` (stereo unspecified), the IC50 was > 80 µM (inactive).

Consider `CCN(CC)c1ccc(NC(=O)c2ccccc2Br)cc1S(=O)(=O)Nc1ccccc1OC`, for which the concentration for half-maximal inhibition (IC50) is 59.2 µM.

Turning to `COc1cc(/C=C2\SC(c3ccc(C)cc3)=NC2=O)ccc1O`, the IC50 is > 80 µM (inactive).

As for `C[c-]1[c-](C)[c-](C)[c-](C)[c-]1C.[Fe].c1cc2nccc(N3CCCC3)[c-]2c1` (stereo unspecified), the IC50 is 52.9 µM.

For the compound `CCNc1cc2c(cc1O)CCC1C2CCC2(C)C(O)CCC12` (stereo unspecified), the IC50 was 35.7 µM.

With `Cc1ccc(S(=O)(=O)Oc2cccc(/C=N/Nc3ccc(C(=O)O)cc3)c2)cc1`, the half-inhibitory concentration (IC50) is 41.4 µM.

As for `Nc1ccc2c3c(cccc13)-c1ccccc1-2`, the IC50 is 41.3 µM.

With `COc1cc(N(C)C)ccc1C=c1c2ccccc2n2c1cc(-c1ccccc1)[n+]2C`, the IC50 was > 80 µM (inactive).

Turning to `Cc1cc(C(=O)O)ccc1-n1c(C)cc(C=C2C(=O)c3ccccc3C2=O)c1C`, the IC50 was > 80 µM (inactive).

For `CCOC(=O)c1c(OCC)[nH]c2c1cc(O)c1ccccc12`, the IC50 was > 80 µM (inactive).

Turning to `CCN(CC)C(=O)c1c(C)[nH]c(=S)c(C#N)c1-c1ccco1`, the IC50 was > 80 µM (inactive).

Take `Oc1ccc(C2C[C@H]3CC[C@@H]2C3)cc1O` (stereo partly specified): the IC50 is 48.6 µM.

Take `COc1cc(/C=C/C(=O)c2ccc([N+](=O)[O-])o2)ccc1O`: the IC50 is > 80 µM (inactive).

As to `O=C(O)C(Cc1ccccc1)N1C(=O)C=CC1=O` (stereo unspecified), the IC50 was 36.2 µM.

`CCOc1ccccc1CNc1ccc(O)cc1`: the concentration for half-maximal inhibition (IC50) is 46.7 µM.

`c1ccc(-c2cn3c(n2)CCc2ccc4cccnc4c2-3)cc1`: the IC50 was > 80 µM (inactive).

On to `O=c1[nH]c(NCCO)c(N=Cc2ccccc2)c(=O)[nH]1`, for which the IC50 was > 80 µM (inactive).

Consider `CC1N(C)c2cccc3cccc(c23)N1C`, for which the IC50 was 19.7 µM.

Consider `CCn1c(SCc2nc3scc(-c4ccccc4)c3c(=O)[nH]2)nnc1-c1cccs1`, for which the IC50 is 58 µM.

Consider `N#Cc1ccc(N=c2ssnc2Cl)cc1`, for which the half-inhibitory concentration (IC50) was 53.7 µM.

Regarding `N#Cc1ccc2c(=O)n(-c3ccccc3)sc2c1`, the concentration for half-maximal inhibition (IC50) is 39.6 µM.

As for `O=S(=O)(Nc1cccc2cccnc12)c1ccccc1`, the IC50 was 20.9 µM.

With `Cc1nc2ccccn2c1-c1ccnn1S(=O)(=O)c1ccc(F)cc1`, the IC50 is > 80 µM (inactive).

In the case of `c1ccc(OCc2nnc3n2N=C(c2ccccc2)CS3)cc1`, the IC50 is > 80 µM (inactive).

As to `CC1=CC(C)(C)Nc2ccc(OC(=O)CN3C(=O)c4cccc5cccc(c45)C3=O)cc21`, the IC50 was 76.9 µM.

In the case of `O=c1c2ccccc2sn1-c1nccs1`, the IC50 was 23.1 µM.

Regarding `CC(=O)Nc1ccc2c(c1)Cc1cc(N3C(=O)C=CC3=O)ccc1-2`, the concentration for half-maximal inhibition (IC50) was 27.2 µM.

Consider `CCN(CC)c1nc(N)nc(NS(=O)(=O)c2ccc(Cl)cc2)n1`, for which the IC50 is > 80 µM (inactive).

On to `C=CCN1C=C2C(=O)C(C)(OC(=O)CCC(=O)OC)C(=O)C(Br)=C2C=C1c1ccc(OC)cc1` (stereo unspecified), for which the IC50 is > 80 µM (inactive).

In the case of `O=c1c2ccccc2sn1-c1cccc(Cl)c1`, the half-maximal inhibitory concentration (IC50) is 14.2 µM.

Take `CCc1cc(-c2n[nH]c(C)c2-c2nc3ccccc3n2C)c(O)cc1O`: the IC50 is 9.3 µM.

As to `CCSc1nc2cc(S(=O)(=O)N3CCOCC3)ccc2o1`, the IC50 is > 80 µM (inactive).

With `COC(=O)c1ccccc1NC1=C/C(=N\S(=O)(=O)c2cccs2)c2ccccc2C1=O`, the concentration for half-maximal inhibition (IC50) is 35.7 µM and 60.4 µM.

In the case of `COc1ccc(CCn2c(NN=C3CCCCC3)nc3c2c(=O)[nH]c(=O)n3C)cc1`, the IC50 is > 80 µM (inactive).

For the compound `CCc1ccc(OCC(=O)N/N=C/c2cc([N+](=O)[O-])ccc2N2CCOCC2)cc1`, the IC50 was > 80 µM (inactive).

With `CCn1c([N+](=O)[O-])nc2c1c(=O)[nH]c(=O)n2C`, the IC50 is > 80 µM (inactive).

In the case of `O=C(O)c1cccc(N2C(=O)C=CC2=O)c1`, the IC50 is 55.2 µM.

For `O=C(Nc1ccc([N+](=O)[O-])cc1Cl)c1cc(Cl)ccc1O`, the IC50 was > 80 µM (inactive).

Take `COc1cc(/C=C2\SC(c3ccc(C)cc3)=NC2=O)cc(OC)c1O`: the IC50 is > 80 µM (inactive).

On to `CC(C)(C)c1ccc(O)c(O)c1`, for which the IC50 was 48.6 µM.

Regarding `CCOc1cc(CNc2ccc(N3CCCC3)cc2)cc(Cl)c1OC`, the IC50 was > 80 µM (inactive).

Take `CN(C)c1cccc2c1c(NC(=O)c1ccc(Cl)cc1)nn2C`: the IC50 is > 80 µM (inactive).

As for `Cc1ccc(/C=C/C(=O)NCC2COc3ccccc3O2)o1` (stereo unspecified), the IC50 is > 80 µM (inactive).

As to `Cc1ccc(/C=C/C(=O)NCCc2cccc(Cl)c2)o1`, the IC50 is > 80 µM (inactive).

In the case of `O=S(c1ccccc1O)S(=O)c1ccccc1O` (stereo unspecified), the IC50 was 36.4 µM.

Turning to `CCS(=O)(=O)N1CCN(c2ccc([N+](=O)[O-])c(NC(C)c3ccccc3)c2)CC1` (stereo unspecified), the IC50 was > 80 µM (inactive).

As to `Cc1cc(NC(=O)c2oc3ccccc3c2C)ccc1-n1cnnn1`, the 50% inhibitory concentration (IC50) was 14.9 µM.

Consider `Cc1ccc(C)c(-n2sc3ccc(F)cc3c2=O)c1`, for which the IC50 was 11.4 µM.

On to `O=[N+]([O-])c1cnc(Sc2ccncn2)c([N+](=O)[O-])c1`, for which the IC50 was 62.8 µM.

Turning to `Cc1ccnc(-n2sc3ccccc3c2=O)n1`, the IC50 was 26.4 µM.

For the compound `C=C1C(=O)O[C@@H]2C[C@@H](C)[C@@H]3C=CC(=O)[C@@]3(C)[C@@H](OC(=O)CC(=O)O[C@H]3[C@@H]4C(=C)C(=O)O[C@@H]4C[C@@H](C)[C@@H]4C=CC(=O)[C@]43C)[C@H]12`, the IC50 was > 80 µM (inactive).

Regarding `C=CCc1c(C)[nH]c(=S)c(C#N)c1C`, the IC50 was > 80 µM (inactive).

In the case of `CC(C)c1nnc(NC(=O)c2cc3ccccc3o2)s1`, the half-inhibitory concentration (IC50) is 31.2 µM.

Take `CC(C)c1nnc(NC(=O)c2cccc(-n3cnnn3)c2)s1`: the IC50 was 27.4 µM.

For `Oc1ccc(C23CC4CC(CC(C4)C2)C3)cc1O`, the IC50 was 37.8 µM.

On to `O=[N+]([O-])c1c(NCCO)cc(Sc2nc3ccccc3s2)c2nonc12`, for which the IC50 is > 80 µM (inactive).

For `Cc1ccccc1OCC(=O)N/N=C/c1ccc(Sc2nc3ccccc3s2)o1`, the IC50 was > 80 µM (inactive).

As to `N#Cc1c(C#N)c(SSc2c(C#N)c(C#N)c(N)n2-c2ccccc2)n(-c2ccccc2)c1N`, the IC50 is > 80 µM (inactive).

Turning to `O=c1c2ccccc2sn1-c1ccccc1F`, the IC50 was 15.5 µM.

On to `CCN(CC)C(=S)SSC(=S)N(CC)CC`, for which the IC50 is > 80 µM (inactive).

In the case of `O=c1c2ccc(F)cc2sn1-c1ccccc1`, the 50% inhibitory concentration (IC50) was 15.4 µM.

What is called IC50 is the midpoint of a concentration-inhibition curve.
